Like-named read-outs stand apart in the source and are kept apart here.
Legend:
Format in all cases: in vivo
[1] = test system: DKC 53-33 corn hybrid (NK 603 event); assay: Greenhouse glyphosate/PSII inhibitor injury assay, Example 2; settings: single application, treated at 2 leaves unfolded (GS 12)
Method: (§1) Two corn seeds were planted one inch deep per 3.5×3.5 inch plastic pot filled with commercial potting mix (Redi-earth). The potting mix was supplemented with Osmacote™ 14-14-14 slow release fertilizer at 100 gm/ft3 to optimize growth. Pots were then placed in a greenhouse (25 C day/19 C night, 14 hour day) and water was supplied through subirrigation. Plants were allowed to grow to the stage where 3 leaves were unfolded (6-9 days after planting, approximate growth stage of GS 13) prior to the application of glyphosate and photosystem II inhibitor.
(§2) Herbicide treatments consisted of application of glyphosate and PSII inhibitor. Application rates for glyphosate (Roundup UltraMAX, Monsanto, St. Louis) included: 840 gm/ha; 1680 gm/ha; and 3360 gm/ha (i.e., 0.75 lbs/A; 1.5 lbs/A; and 3.0 lbs/A). Application rates for linuron (Lorox, DuPont) included 56 gm/ha; 112 gm/ha; and 224 gm/ha. Application rates for metribuzin (Sencor, Bayer) included 56 gm/ha; 112 gm/ha; and 224 gm/ha. Treatments were broadcast applied in a research track sprayer utilizing an even flat fan spray tip. Plants were returned to the greenhouse following applications. Growth inhibition was measured 10 days after treatment (DAT). […] Growth reduction can be measured about 7-10 DAT by direct or visual estimation (0=no growth reduction, 100=complete growth reduction).
(§3) Roundup Ready corn hybrids tested were RX 686Roundup Ready (GA 21 event) and DKC 53-33(NK 603 event). Growth of plant material and treatment regime was as described in Example 1, except plants were allowed to grow to the stage where 2 leaves were unfolded (approximately GS 12) prior to the application of glyphosate and photosystem II inhibitor. Growth inhibition was measured 10 days after treatment (DAT).

[2] = test system: RX 686 Roundup Ready corn hybrid (GA 21 event); assay: as above; settings: single application, treated at 2 leaves unfolded (GS 12)
Method: as §1, §2, §3

[3] = test system: GA 21 corn event
Method: (§4) The glyphosate tolerance of RoundUp Ready corn events NK 603 and GA 21 were characterized in field trials. Corn was planted in 36 inch rows in plots of 4 rows by 30 ft with the two center rows being harvested. The study comprised 22 locations with 4 replicates of each treatment per location and the data were pooled across locations. Corn plants were treated with glyphosate at two consecutive developmental ages of V4 and V8. Glyphosate application rates were 0.75, 1.5, and 2.23 pounds per acre (lbs/A). Application volume was 10 gallons/acre. […] Data for chlorosis, malformed leaves, and growth reduction was collected at 22 locations. Also, at harvest of mature corn plants, the yield percentage and grain moisture percentage were assessed. Data for yield and grain moisture was collected at harvest at 19 locations and expressed as the mean percentage yield or moisture with respect to controls.

[4] = test system: NK 603 corn event
Method: as §4

[5] = test system: GA 21 corn event; settings: for % Yield / % Grain Moisture: harvest, 19 locations
[6] = test system: NK 603 corn event; remark: listed apart in the source
[7] = glyphosate rate 0.75/0.75 (lbs/A) at V4/V8, 22 locations
[8] = glyphosate rate 0.75/0.75 at V4/V8, mean with respect to controls, harvest, 19 locations
[9] = glyphosate rate 1.5/1.5 (lbs/A) at V4/V8, 22 locations
[10] = glyphosate rate 1.5/1.5 at V4/V8, locations with injury greater than 9%
[11] = glyphosate rate 2.25/2.25 at V4/V8, locations with injury greater than 9%
[12] = NK 603, glyphosate rate 0.75/0.75 (lbs/A) at V4/V8, 22 locations
[13] = NK 603, glyphosate rate 1.5/1.5 (lbs/A) at V4/V8, 22 locations
[14] = NK 603, glyphosate rate 1.5/1.5 at V4/V8, mean with respect to controls, harvest, 19 locations
[15] = glyphosate rate 2.25/2.25 (lbs/A) at V4/V8, 22 locations
[16] = glyphosate rate 2.25/2.25 at V4/V8, mean with respect to controls
[17] = glyphosate rate 2.25/2.25 at V4/V8, mean with respect to controls, harvest, 19 locations

Question: How did the crop injury [1] turn out when `CSc1nnc(C(C)(C)C)c(=O)n1N` [metribuzin] was run?
Answer: did not produce any discernable crop injury

Question: And the crop injury [2]?
Answer: did not produce any discernable crop injury

Question: For `CON(C)C(=O)Nc1ccc(Cl)c(Cl)c1` [linuron], which crop injury [1] is on record?
Answer: did not produce any discernable crop injury

Question: What about the crop injury [2] of the same compound?
Answer: did not produce any discernable crop injury

Question: For `O=C(O)CNCP(=O)(O)O` [glyphosate, N-phosphonomethylglycine], which crop injury [1] is on record?
Answer: did not produce any discernable crop injury

Question: And the crop injury [2]?
Answer: did not produce any discernable crop injury

Question: What about the “% Chlorosis 10 DAT: number of locations exhibiting injury greater than 9%” value (“% Chlorosis 10 DAT: number” for short) [3, 7] of the same compound?
Answer: None

Question: What about the “% Malform 10 DAT: number of locations exhibiting injury greater than 9%” value (“% Malform 10 DAT: number” for short) [3, 7] of the same compound?
Answer: None

Question: And the “% Grain Moisture” value [3, 8]?
Answer: 100.7%

Question: What about the “% Growth Reduction 30 DAT: number of locations exhibiting injury greater than 9%” value (shortened to “% Growth Reduction 30 DAT: number”) [3, 9] of the same compound?
Answer: 1

Question: What about the “% Growth Reduction 10 DAT: percentage range of observed injury” value [3, 10] of the same compound?
Answer: 10-14%

Question: And the “% Growth Reduction 30 DAT: percentage range of observed injury” value [3, 10]?
Answer: 11%

Question: What about the “% Yield” value ([3]; glyphosate rate 1.5/1.5 at V4/V8, mean with respect to controls, harvest, 19 locations) of the same compound?
Answer: 97.8%

Question: What about the “% Chlorosis 10 DAT: percentage range of observed injury” value (“% Chlorosis 10 DAT: percentage range” for short) [3, 11] of the same compound?
Answer: 11-21%

Question: And the “% Growth Reduction 30 DAT: percentage range of observed injury” value [3, 11]?
Answer: 10-13%

Question: And the “% Chlorosis 10 DAT: number” value [4, 12]?
Answer: None

Question: And the “% Malform 10 DAT: number” value [4, 12]?
Answer: None

Question: What about the “% Yield” value ([4]; NK 603, glyphosate rate 0.75/0.75 at V4/V8, mean with respect to controls, harvest, 19 locations) of the same compound?
Answer: 103.3%

Question: And the “% Chlorosis 10 DAT: number” value [4, 13]?
Answer: None

Question: And the “% Growth Reduction 30 DAT: number” value [4, 13]?
Answer: None

Question: And the “% Malform 10 DAT: percentage range of observed injury” value (shortened to “% Malform 10 DAT: percentage range”) ([4]; NK 603, glyphosate rate 1.5/1.5 at V4/V8, locations with injury greater than 9%)?
Answer: 10-11%

Question: And the “% Grain Moisture” value [4, 14]?
Answer: 101.7%

Question: What about the “% Yield” value [4, 14] of the same compound?
Answer: 99.4%

Question: What about the injury ([4]; glyphosate applications up to 3360 gm/ha, even applied sequentially, NK 603 event (e.g. DKC 53-33 hybrid)) of the same compound?
Answer: no injury

Question: What about the “% Growth Reduction 10 DAT: number of locations exhibiting injury greater than 9%” value (from here on “% Growth Reduction 10 DAT: number”) [5, 7] of the same compound?
Answer: None

Question: What about the “% Growth Reduction 30 DAT: number” value [5, 7] of the same compound?
Answer: None

Question: What about the “% Yield” value ([5]; glyphosate rate 0.75/0.75 at V4/V8, mean with respect to controls) of the same compound?
Answer: 101.8%

Question: And the “% Chlorosis 10 DAT: number” value [5, 9]?
Answer: 3

Question: What about the “% Growth Reduction 10 DAT: number” value [5, 9] of the same compound?
Answer: 5

Question: What about the “% Malform 10 DAT: number” value [5, 9] of the same compound?
Answer: 5

Question: And the “% Chlorosis 10 DAT: percentage range” value [5, 10]?
Answer: 10-14%

Question: And the “% Malform 10 DAT: percentage range” value [5, 10]?
Answer: 11-16%

Question: What about the “% Grain Moisture” value ([5]; glyphosate rate 1.5/1.5 at V4/V8, mean with respect to controls) of the same compound?
Answer: 101.0%

Question: And the “% Chlorosis 10 DAT: number” value [5, 15]?
Answer: 3

Question: What about the “% Growth Reduction 10 DAT: number” value [5, 15] of the same compound?
Answer: 7

Question: And the “% Growth Reduction 30 DAT: number” value [5, 15]?
Answer: 4

Question: And the “% Malform 10 DAT: number” value [5, 15]?
Answer: 6

Question: What about the “% Growth Reduction 10 DAT: percentage range of observed injury” value [5, 11] of the same compound?
Answer: 11-30%

Question: What about the “% Malform 10 DAT: percentage range” value [5, 11] of the same compound?
Answer: 10-33%

Question: What about the “% Grain Moisture” value [5, 16] of the same compound?
Answer: 101.6%

Question: And the “% Yield” value [5, 16]?
Answer: 90.8%

Question: And the “% Growth Reduction 10 DAT: number” value [6, 7]?
Answer: None

Question: What about the “% Growth Reduction 30 DAT: number” value [6, 7] of the same compound?
Answer: None

Question: And the “% Grain Moisture” value [6, 8]?
Answer: 100.2%

Question: What about the “% Growth Reduction 10 DAT: number” value [6, 9] of the same compound?
Answer: None

Question: What about the “% Malform 10 DAT: number” value [6, 9] of the same compound?
Answer: 3

Question: And the “% Chlorosis 10 DAT: number” value [6, 15]?
Answer: 3

Question: What about the “% Growth Reduction 10 DAT: number” value [6, 15] of the same compound?
Answer: 3

Question: And the “% Growth Reduction 30 DAT: number” value [6, 15]?
Answer: 2

Question: And the “% Malform 10 DAT: number” value [6, 15]?
Answer: 6

Question: And the “% Chlorosis 10 DAT: percentage range” value [6, 11]?
Answer: 11-19%

Question: And the “% Growth Reduction 10 DAT: percentage range of observed injury” value [6, 11]?
Answer: 10-19%

Question: What about the “% Growth Reduction 30 DAT: percentage range of observed injury” value [6, 11] of the same compound?
Answer: 11-15%

Question: What about the “% Malform 10 DAT: percentage range” value [6, 11] of the same compound?
Answer: 11-19%

Question: What about the “% Grain Moisture” value [6, 17] of the same compound?
Answer: 103.1%

Question: And the “% Yield” value [6, 17]?
Answer: 96.6%
